Test results: US5843941A, “Ras farnesyl transferase inhibitors” (Genentech, Inc., priority 1994, dated 1998)
Where two headings read alike, the source gives them in different places.

Columns and labels:
[1] = system: farnesylated proteins F1, F2 and F3 in Met18b-2 cells; experiment: Inhibition of intracellular farnesylation in intact Met18b-2 cells, Triton-soluble proteins F1, F2, F3; assay type: cell-based, Chinese hamster; details: for EC90: Cricetulus griseus, read-out: EC 90% "B isomer"
Source text: To study farnesylation in intact cells we used Met18b-2 cells, a line of Chinese hamster ovary (CHO) cells that takes up [3H]mevalonate efficiently (see Faust, J., and Krieger, M. J. Biol. Chem. 262, 1966 (1987)) owing to the production of a mevalonate transport protein (see Kim, C. M., Goldstein, J. L., Brown, M. S. J. Biol. Chem. 267, 23113 (1992)). The [3H]mevalonate is converted by the cells into [3H]farnesyl pyrophosphate and [3H]geranylgeranyl pyrophosphate, which are then attached to proteins (Kim, C. M., Goldstein, J. L., Brown, M. S. J. Biol. Chem. 267, 23113 (1992)). In the assay, stock cultures of Met18b-2 cells were seeded at a density of 3-105 cells per 60 mm dish in 3 ml of medium A (Dulbecco's modified Eagle medium/Ham's F12 medium (1:1, v/v) containing 100 U/ml penicillin and 100 μg/ml streptomycin) supplemented with 5% (v/v) fetal calf serum (FCS). On day 3, each monolayer was refed with 1 ml medium A supplemented with 1% FCS (dialyzed against 0.15 M NaCl). At this point the cells were treated with 100 μM compactin (see Brown, M. S., Faust, J. R., Goldstein, J. L., Kaneko, I., and Endo, A. J. Biol. Chem. 253, 1121 (1978)) which blocks the synthesis of unlabeled mevalonate within the cells. Each compound was dissolved at 25 mM in DMSO/10 mM DTT immediately before use and 10 μl of this solution added directly. After 2 hr incubation at 37° C., each monolayer received 100 μCi [3H]mevalonate (60 Ci/mmol, American Radiolabeled Chemicals, Inc.) added in 100 μl of the medium A, and the incubation continued for 4 hr. The cells were harvested by rinsing three times with 3 ml of 50 mM Tris-HCl/0.15 M NaCl (pH 7.5). 300 μl of lysis buffer (0.5X Dulbecco's phosphate-buffered saline containing 1% Triton X-100, 5 μg/ml leupeptin, 5 μg/ml pepstatin, 0.5 mM phenylmethylsulfonyl fluoride, and 0.05 U/ml aprotinin) was added to each monolayer. After incubation on ice for 5 mon, the lysates were centrifuged 30 sec in a microfuge at 12,000 g. The resulting supernatant was tranferred to a new tube, and each pellet was resuspended in 60 μl of lysis buffer. Protein concentrations were determined using the BCA protein assay reagent (Pierce) according to the manufacturer's instructions. Detergent-soluble (supernatant) and -insoluble (pellet) samples were mixed with 2X SDS sample buffer (see Laemmli, U. K. Nature 227, 680 (1970)) and heated at 95° C. for 5 min before electrophoresis. Each lane contained 90 μg protein, and was run on a 12.5% SDS-polyacrylamide gel. The gel was dried, treated with ENTENSIFY (NEN-DuPont), and exposed to Kodak XOMAT-AR film for 9 h at -80° C. to allow visualization of all prenylated proteins. Migration of [14C]methylated molecular weight standards (Amersham) were used as markers.
The results of this assay are shown in FIG. 3, using a final concentration of 250 μM for each inhibitor. […] As shown in the figure, none of the control peptides or control benzodiazepine-peptideomimetics altered the prenylation of proteins in intact cells.
Using the same cells and procedures followed above for Example 125, we measured the dose dependence upon the inhibition of farnesylation in intact cells. […] Compound 37B inhibited the famesylation of F1-3 detectably at 10 μM, and almost completely at 25 μM.
In this manner, it is possible to obtain data regarding the comparative potency of these inhibitors upon the level of intracellular farnesylation. We have chosen to report the EC90% values for these inhibitors as the concentration required for a reduction in the Triton- soluble labelling (denoted F-1, F-2, and F-3) to 90% of control cells (untreated).

CAAX farnesyltransferase = CAAX farnesyltransferase (Rattus norvegicus, UniProt Q02293+Q04631); experiment: In vitro inhibition of CAAX farnesyltransferase; assay type: biochemical; parameters: purified to homogeneity from rat brain homogenates; from tissue; host or cells: rat brain; alternatively recombinant enzyme from a baculovirus expression system; details: Table D
How it was run: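 Native or recombinant (baculovirus-infected cells, Q-Sepharose purified) farnesyltransferase incubated 30 min at 37 °C. [3H]farnesyl transfer to p21H-ras measured by SDS/trichloroacetic acid precipitation, nitrocellulose filtration and scintillation counting.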

[2] = diastereomer B, read-out: EC50 (μM) "B"
[3] = diastereomer A, read-out: EC50 (μM) "A"

Chain of CAAX farnesyltransferase (Q02293 whole entry, one chain of several): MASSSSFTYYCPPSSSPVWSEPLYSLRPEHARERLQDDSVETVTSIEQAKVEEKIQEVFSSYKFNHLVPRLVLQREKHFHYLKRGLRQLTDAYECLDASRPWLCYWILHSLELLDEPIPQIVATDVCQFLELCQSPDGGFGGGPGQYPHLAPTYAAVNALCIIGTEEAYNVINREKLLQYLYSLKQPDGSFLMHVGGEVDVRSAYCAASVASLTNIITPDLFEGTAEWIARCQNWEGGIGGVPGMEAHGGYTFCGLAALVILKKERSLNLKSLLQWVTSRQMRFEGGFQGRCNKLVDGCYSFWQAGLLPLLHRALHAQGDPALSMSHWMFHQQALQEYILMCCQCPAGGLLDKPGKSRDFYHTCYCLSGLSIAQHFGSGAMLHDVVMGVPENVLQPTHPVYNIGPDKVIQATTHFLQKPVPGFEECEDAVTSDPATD

Row | SMILES | relative potency in intact cells ([1]; dose dependence, FIG. 4, compared with 27B and 37B) | EC90 [1] [nM] | EC50 (CAAX farnesyltransferase; [2]) [µM] | EC50 (CAAX farnesyltransferase; [3]) [µM] | EC50 (CAAX farnesyltransferase; EC50 (μM) "B", diastereomer B) [µM]
1 | CSCC[C@H](NC(=O)CN1C(=O)C(N(C)C(=O)[C@@H](N)CS)N=C(c2ccccc2)c2ccccc21)C(N)=O (single isomer, unassigned) [33B, N-[[3-[(2-amino-3-mercapto-1-oxopropyl)methylamino]-2,3-dihydro-2-oxo-5phenyl-1H-1,4-benzodiazepin-1-yl]acetyl]-L-methionine amide] | of intermediate potency | – | – | – | –
2 | COC(=O)c1cccc(CN2C(=O)C(N(C)C(=O)[C@@H](N)CSSC(C)(C)C)N=C(c3ccccc3)c3cc(Cl)ccc32)c1 (stereo partly drawn) [compound 99, N-[[3-[(2-amino-3-tert-butylthiomercapto-1-oxopropyl)methylamino]-2,3-dihydro-2-oxo-5-phenyl-7-chloro-1H-1,4-benzodiazepin-1-yl]methyl]-3-carboxymethylbenzene] | – | 30000 | 0.38 | – | –
3 | COC(=O)c1cccc(CN2C(=O)C(N(C)C(=O)[C@@H]3CSC(C)N3)N=C(c3ccccc3)c3cc(Cl)ccc32)c1 (stereo partly drawn) [compound 100, N-[[3-[(2-methylthiazolidine-4-carboxyl)methylamino]-2,3-dihydro-2-oxo-5-phenyl-7-chloro-1H-1,4-benzodiazepin-1-yl]methyl]-3-carboxymethylbenzene] | – | 30000 | 0.034 | 0.52 | –
4 | CN(C(=O)[C@@H](N)CS)C1N=C(c2ccccc2)c2cc(Cl)ccc2N(Cc2ccc(C#N)cc2)C1=O (stereo partly drawn) [compound 101, N-[[3-[(2-amino-3-mercapto-1-oxopropyl)methylamino]-2,3-dihydro-2-oxo-5-phenyl-7-chloro-1H-1,4-benzodiazepin-1-yl]methyl]4-benzonitrile] | – | 20000 | 0.0009 | 3 | –
5 | CN(C(=O)[C@@H](N)CS)C1N=C(c2ccccc2)c2cc(Cl)ccc2N(Cc2ccc(C(F)(F)F)cc2)C1=O (stereo partly drawn) [compound 106, N-[[3-[(2-amino-3-mercapto-1-oxopropyl)methylamino]-2,3-dihydro-2-oxo-5-phenyl-7-chloro-1H-1,4-benzodiazepin-1-yl]methyl]-4-trifluoromethylbenzene] | – | 50000 | 0.018 | 0.65 | –
6 | CN(C(=O)[C@@H](N)CS)C1N=C(c2ccccc2)c2cc(Cl)ccc2N(Cc2ccc(F)cc2)C1=O (stereo partly drawn) [compound 108, N-[[3-[(2-amino-3-mercapto-1-oxopropyl)methylamino]-2,3-dihydro-2-oxo-5-phenyl-7-chloro-1H-1,4-benzodiazepin-1-yl]methyl]-4-fluorobenzene] | – | 50000 | 0.0018 | 0.0018 | –
7 | CCOC(=O)[C@H](CCSC)NC(=O)CN1C(=O)C(N(C)C(=O)C2CSC(C)N2)N=C(c2ccccc2)c2ccccc21 (stereo partly drawn) [compound 109, N-[[3-[(2-methylthiazolidine-4-carboxyl)methylamino]-2,3-dihydro-2-oxo-5-phenyl-1H-1,4-benzodiazepin-1-yl]acetyl]-L-methionine ethyl ester] | – | 10000 | 0.1 | 3.1 | –
8 | COC(=O)[C@H](CCSC)NC(=O)CN1C(=O)C(N(C)C(=O)[C@@H](N)CSSC(C)(C)C)N=C(c2ccccc2)c2ccccc21 (stereo partly drawn) [compound 110, N-[[3-[(2-amino-3-tert-butylthiomercapto-1-oxopropyl)methylamino]-2,3-dihydro-2-oxo-5-phenyl-1H-1,4-benzodiazepin-1-yl]acetyl]-L-methionine methyl ester] | – | 10000 | > 1.5 | > 1.5 | –
9 | CSCC[C@H](NC(=O)CN1C(=O)C(N(C)C(=O)[C@@H](N)CSSC(C)(C)C)N=C(c2ccccc2)c2cc(Cl)ccc21)C(=O)OC1CCCCC1 (stereo partly drawn) [compound 111, N-[[3-[(2-amino-3-tert-butylthiomercapto-1-oxopropyl)methylamino]-2,3-dihydro-2-oxo-5-phenyl-7-chloro-1H-1,4-benzodiazepin-1-yl]acetyl]-L-methionine cyclohexyl ester] | – | 2000 | 1.4 | > 3 | –
10 | CSCC[C@H](NC(=O)CN1C(=O)C(N(C)C(=O)[C@@H](N)CSSC(C)(C)C)N=C(c2ccccc2)c2ccccc21)C(=O)OC1CCCCC1 (stereo partly drawn) [compound 112, N-[[3-[(2-amino-3-tert-butylthiomercapto-1-oxopropyl)methylamino]-2,3-dihydro-2-oxo-5-phenyl-1H-1,4-benzodiazepin-1-yl]acetyl]-L-methionine cyclohexyl ester] | – | 4000 | 0.2 | – | –
11 | CC(C)C[C@H](NC(=O)CN1C(=O)C(N(C)C(=O)[C@@H](N)CSSC(C)(C)C)N=C(c2ccccc2)c2cc(Cl)ccc21)c1nnn[nH]1 (stereo partly drawn) [compound 114, N-[[3-[(2-amino-3-tert-butylthiomercapto-1-oxopropyl)methylamino]-2,3-dihydro-2-oxo-5-phenyl-7-chloro-1H-1,4-benzodiazepin-4-yl]acetyl]-L-leucine tetrazole] | – | 30000 | 0.12 | – | –
12 | CN(C(=O)[C@@H](N)CSSC(C)(C)C)C1N=C(c2ccccc2)c2cc(Cl)ccc2N(CC(=O)N[C@@H](Cc2ccccc2)C(N)=O)C1=O (stereo partly drawn) [compound 115, N-[[3-[(2-amino-3-tert-butylthiomercapto-1-oxopropyl)methylamino]-2,3-dihydro-2-oxo-5-phenyl-7-chloro-1H-1,4-benzazepin-1-yl]acetyl]-L-phenylalanine amide] | – | 50000 | 0.1 | > 3 | –
13 | CSCC[C@H](NC(=O)CN1C(=O)C(N(C)C(=O)[C@@H](N)CSSC(C)(C)C)N=C(c2ccccc2)c2cc(Cl)ccc21)c1nnn[nH]1 (stereo partly drawn) [compound 116, N-[[3-[(2-amino-3-tert-butylthiomercapto-1-oxopropyl)methylamino]-2,3-dihydro-2-oxo-5-phenyl-7-chloro-1H-1,4-benzodiazepin-1-yl]acetyl]-L-methionine tetrazole] | – | 60000 | 0.03 | > 3 | –
14 | CN(C(=O)[C@@H](N)CSSC(C)(C)C)C1N=C(c2ccccc2)c2ccccc2N(CC(=O)N[C@@H](Cc2ccccc2)C(=O)OC2CCCCC2)C1=O (stereo partly drawn) [compound 117, N-[[3-[(2-amino-3-tert-butylthiomercapto-1-oxopropyl)methylamino]-2,3-dihydro-2-oxo-5-phenyl-1H-1,4-benzodiazepin-1-yl]acetyl]-L-phenylalanine cyclohexyl ester] | – | 3000 | – | – | 1.6
15 | CN(C(=O)[C@@H](N)CSSC(C)(C)C)C1N=C(c2ccccc2)c2cc(Cl)ccc2N(CC(=O)N[C@@H](Cc2ccccc2)c2nnn[nH]2)C1=O (stereo partly drawn) [compound 119, N-[[3-[(2-amino-3-tert-butylthiomercapto-1-oxopropyl)methylamino]-2,3-dihydro-2-oxo-5-phenyl-7-chloro-1H-1,4-benzodiazepin-1-yl]acetyl]-L-phenylalanine tetrazole] | – | 30000 | 0.017 | > 3 | –
